Reference: the supplement of paper PMC8882468

How the values were obtained:
Assay in all cases: CTG-3D luminescence at 96 h relative to day-0 seeding control (ratio to day 0); higher = more growth / less cytotoxicity; PDxO 3D drug screen, 96 h, CTG-3D normalised to day-0 seeding control.
[1] = tested on: HCI-017.E2 (organoid from an ER-positive breast cancer xenograft)
[2] = tested on: HCI-012 (organoid from a breast cancer xenograft)
[3] = tested on: HCI-015 (organoid from a triple-negative breast cancer xenograft)
[4] = tested on: HCI-016 (organoid from a triple-negative breast cancer xenograft)
[5] = tested on: HCI-005.E2 (organoid from a breast cancer xenograft with a HER2-positive history)
[6] = tested on: MDA-MB-231

COc1cc2c(Oc3ccc4[nH]c(C)cc4c3F)ncnc2cc1OCCCN1CCCC1 [cediranib]
CTG-3D luminescence at 96 h
Conditions | 12.5 pM | 0.00025 µM | 0.005 µM | 0.1 µM | 1 µM | 10 µM | 100 µM | 625 fM
[1] | 1.74 | 2.27 | 2.12 | 2.09 | 1.751 | 1.81 | 0.00813 | 2.35
[5] | 1.5 | 1.54 | 1.77 | 1.68 | 1.11 | 0.322 | 0.0129 | 1.54
[6] | 4.34 | 4.3 | 4.48 | 4.29 | 4.44 | 1.46 | 0.0107 | 4.45

CTG-3D luminescence at 96 h
Conditions | 12.5 pM | 0.00025 µM | 0.005 µM | 0.1 µM | 1 µM | 10 µM | 100 µM | 625 fM
[1], days in culture: 85 | 2.93 | 3.39 | 2.44 | 2.78 | 2.18 | 2.05 | 0.00763 | 2.35
[2], days in culture: 143 | 2.15 | 1.81 | 1.84 | 2.55 | 2.33 | 0.0236 | -0.00161 | 2
[2], days in culture: 162 | 2.22 | 1.99 | 1.54 | 2.43 | 2.26 | 0.0254 | -0.00236 | 3.02
[2], days in culture: 201 | 2.36 | 2.05 | 1.5 | 1.45 | 2.29 | 0.0167 | -0.00095 | 1.66
[3], days in culture: 172 | 2.29 | 1.76 | 2.22 | 1.47 | 2.43 | 0.0376 | -0.0013 | 2.51
[3], days in culture: 191 | 2.09 | 1.61 | 1.52 | 1.16 | 1.39 | 0.0236 | -0.00165 | 1.33
[3], days in culture: 218 | 1.26 | 1.53 | 1.55 | 1.85 | 1.49 | 0.0308 | -0.00209 | 1.68
[4], days in culture: 153 | 3.21 | 2.24 | 2.18 | 2.54 | 3.03 | 0.161 | -0.00356 | 2.44
[4], days in culture: 172 | 2.32 | 2.05 | 1.6 | 1.62 | 1.55 | 0.397 | -0.000672 | 1.64
[4], days in culture: 190 | 1.57 | 1.2 | 1.45 | 1.43 | 1.44 | 0.423 | 5.93e-05 | 1.13
[4], days in culture: 199 | 1.23 | 1.38 | 1.17 | 1.65 | 1.57 | 0.0517 | -0.0032 | 1.73

C[C@@H]1COCCN1c1cc(C2([S@](C)(=N)=O)CC2)nc(-c2cc[nH]c3nccc2-3)n1 [ceralasertib]
CTG-3D luminescence at 96 h
Conditions | 12.5 pM | 0.00025 µM | 0.005 µM | 0.1 µM | 1 µM | 10 µM | 100 µM | 625 fM
[1] | 1.72 | 2.28 | 2.17 | 2.23 | 2.02 | 1.09 | 0.8168 | 2.165
[5] | 1.83 | 1.7 | 1.86 | 1.9 | 1.16 | 0.849 | 0.6 | 1.78
[6] | 4.45 | 4.38 | 4.49 | 4.47 | 4.27 | 3.1 | 1.86 | 4.53

CTG-3D luminescence at 96 h
Conditions | 12.5 pM | 0.00025 µM | 0.005 µM | 0.1 µM | 1 µM | 10 µM | 100 µM | 625 fM
[1], days in culture: 85 | 3.08 | 3.11 | 2.49 | 2.26 | 2.3 | 1.08 | 0.827 | 2.52
[2], days in culture: 143 | 2.09 | 2.04 | 2.05 | 2.14 | 1.8 | 0.748 | 0.319 | 2.02
[2], days in culture: 162 | 2.52 | 2.31 | 2.18 | 3.14 | 1.92 | 1.3 | 0.451 | 3.18
[2], days in culture: 201 | 2.62 | 2.22 | 1.56 | 1.68 | 2.3 | 0.577 | 0.973 | 1.75
[3], days in culture: 172 | 2.39 | 2.46 | 2.2 | 1.24 | 2.01 | 0.531 | 0.385 | 2.27
[3], days in culture: 191 | 1.99 | 1.33 | 1.19 | 1.08 | 1.25 | 0.413 | 0.258 | 1.52
[3], days in culture: 218 | 1.79 | 1.5 | 1.72 | 1.55 | 1.2 | 0.408 | 0.265 | 1.58
[4], days in culture: 153 | 3.13 | 2.07 | 1.95 | 2.28 | 1.72 | 0.113 | 0.0761 | 2.11
[4], days in culture: 172 | 2.3 | 1.91 | 1.66 | 1.88 | 1.12 | 0.141 | 0.0786 | 1.92
[4], days in culture: 190 | 1.54 | 1.14 | 1.72 | 1.27 | 1.11 | 0.1 | 0.0608 | 1.28
[4], days in culture: 199 | 1.42 | 1.55 | 1.36 | 1.25 | 0.986 | 0.0835 | 0.0684 | 1.6

Cc1cc(Nc2ncc(Cl)c(Nc3ccccc3S(=O)(=O)C(C)C)n2)c(OC(C)C)cc1C1CCNCC1 [ceritinib]
CTG-3D luminescence at 96 h
Conditions | 12.5 pM | 0.00025 µM | 0.005 µM | 0.1 µM | 1 µM | 10 µM | 100 µM | 625 fM
[1] | 1.94 | 2.16 | 2.23 | 2.22 | 1.988 | 0.0699 | -0.00443 | 2.22
[5] | 1.54 | 1.76 | 1.79 | 1.7 | 1.44 | 0.347 | 0.0328 | 1.97
[6] | 4.39 | 4.39 | 4.6 | 4.48 | 4.36 | 0.0178 | -0.011 | 4.51

CTG-3D luminescence at 96 h
Conditions | 12.5 pM | 0.00025 µM | 0.005 µM | 0.1 µM | 1 µM | 10 µM | 100 µM | 625 fM
[1], days in culture: 85 | 2.65 | 2.49 | 2.67 | 2.69 | 2.49 | 0.446 | -0.00537 | 2.49
[2], days in culture: 143 | 2.17 | 1.8 | 1.89 | 2.08 | 1.92 | 0.0093 | -0.00596 | 2.32
[2], days in culture: 162 | 2.32 | 2.04 | 1.68 | 2.9 | 2.19 | 0.0143 | -0.00682 | 2.82
[2], days in culture: 201 | 2.62 | 2.34 | 1.57 | 1.57 | 2.44 | 0.00702 | -0.00682 | 1.54
[3], days in culture: 172 | 1.51 | 1.75 | 2.29 | 1.44 | 1.69 | 0.00586 | -0.0049 | 2.67
[3], days in culture: 191 | 2.15 | 1.47 | 1.3 | 0.962 | 1.19 | 0.00448 | -0.00428 | 1.68
[3], days in culture: 218 | 1.77 | 1.1 | 1.51 | 1.54 | 1.33 | 0.00686 | -0.00473 | 1.61
[4], days in culture: 153 | 3.1 | 1.87 | 2.13 | 1.93 | 2.1 | 0.0113 | -0.00664 | 2.35
[4], days in culture: 172 | 2.65 | 2.04 | 1.89 | 1.31 | 1.46 | 0.00857 | -0.00483 | 2.1
[4], days in culture: 190 | 1.83 | 1.16 | 1.62 | 1.01 | 1.42 | 0.0979 | -0.0035 | 1.25
[4], days in culture: 199 | 1.55 | 1.22 | 1.18 | 1.49 | 1.36 | 0.0047 | -0.00558 | 1.96
